Structures can show the parent of a compound that is named as a salt. Where two headings read alike, the source gives them in different places. Each block holds one compound with its values, some of them ahead of it. Peptide text beside a SMILES is read from it.
Columns and labels:
rabbit PepT1 [1] = target: T1, rabbit PepT1 (Oryctolagus cuniculus, UniProt P36836); assay: Inhibition of radiolabelled D-Phe-L-Gln uptake in Xenopus laevis oocytes expressing rabbit PepT1 (binding affinity); settings: oocytes expressing rabbit PepT1, pH 5.5 assay buffer
T1 construct: expressed in transfected cells; host or cells: Xenopus laevis oocytes
T1 sequence (P36836 1-707): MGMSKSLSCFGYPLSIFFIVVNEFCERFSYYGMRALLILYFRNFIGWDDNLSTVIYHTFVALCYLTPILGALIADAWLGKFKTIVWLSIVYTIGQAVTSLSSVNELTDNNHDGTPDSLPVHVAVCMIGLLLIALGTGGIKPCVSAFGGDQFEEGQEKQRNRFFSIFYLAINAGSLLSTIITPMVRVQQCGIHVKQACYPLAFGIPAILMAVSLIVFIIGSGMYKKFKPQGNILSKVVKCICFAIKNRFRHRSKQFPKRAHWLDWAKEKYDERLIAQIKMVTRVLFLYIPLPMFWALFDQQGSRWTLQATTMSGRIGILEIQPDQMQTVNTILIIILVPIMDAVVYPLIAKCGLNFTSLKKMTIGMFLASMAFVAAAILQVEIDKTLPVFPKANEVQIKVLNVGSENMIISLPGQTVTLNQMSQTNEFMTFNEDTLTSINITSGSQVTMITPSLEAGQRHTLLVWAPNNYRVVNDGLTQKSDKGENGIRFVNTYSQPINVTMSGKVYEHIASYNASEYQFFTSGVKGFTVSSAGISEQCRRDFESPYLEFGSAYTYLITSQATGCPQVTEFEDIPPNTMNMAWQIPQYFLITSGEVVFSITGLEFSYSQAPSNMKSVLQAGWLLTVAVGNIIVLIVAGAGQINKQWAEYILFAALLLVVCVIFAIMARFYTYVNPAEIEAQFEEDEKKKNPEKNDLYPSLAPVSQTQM
Procedure: (§1) The Ki, trans-stimulation efflux and Caco-2 assays were performed as described previously.

rabbit PepT1 [2] = target: T1, rabbit PepT1; assay: Trans-stimulation efflux of [3H]-D-Phe-L-Gln from rabbit PepT1 expressing oocytes; type: cell-based; settings: 10 mM prodrug, [3H]-D-Phe-L-Gln efflux, compared to GlyGln
Procedure: Trans-stimulation assays were performed using radiolabelled [^3H]-D-Phe-L-Gln efflux from rabbit PepT1 expressing oocytes in the presence of 10 mM pro-drug. As controls, 10 mM Gly-L-Gln (a standard PepT1 substrate) or buffer lacking a substrate (negative control) were used.
as §1

[3] = Caco-2 monolayer apical to basolateral transport; type: in vitro ADME; settings: human, 2 mM prodrug, mean ± RSD, read-out: Overall Papp
Procedure: Prodrugs that generated robust trans-stimulated efflux in oocytes were further in a Caco-2 monolayer assay to investigate further the extent and rate of trans-epithelial transport. […] Apical to basolateral transport of 2 mM pro-drug, applied to the apical side, was monitored by high performance liquid chromatography (HPLC) after 1 h. The presence or absence of excess Gly-Gln allowed us to determine both the overall and PepT1 specific permeability (Table 2). […] The PepT1 mediated Papp values are of similar magnitude to known PepT1 (pro)drug substrates.
as §1

[4] = Stability in rat liver homogenate; type: in vitro ADME; settings: 37 °C; for half-life at 0.5 mM: male, rat, rat liver homogenate, pH 7.5, 0.5 mM compound, read-out: Rat liver homgenate t1/2 (converted)
Procedure: Fresh rat liver homogenate was prepared by isolating liver from euthanized male rats, according to approved Home Office procedures. The liver was chopped with scissors and rinsed with medium (0.25 M sucrose, 25 mM KCl, 5 mM MgCl2 and 50 mM Tris/HCl, pH7.5) to remove trapped blood. The liver was then homogenized in fresh medium with a loose-fitting dounce-type homogenizer and kept on ice. Liver homogenate was incubated with either 0.5 mM compound 1 or 3, or L-Trp-L-Ala as a positive control, at 37 °C. 250 μl aliquots of the homogenate were taken at 0, 0.25, 0.5, 1, 2, 6 and 24 h. The samples were precipitated by addition an equal volume of 3% perchloric acid and centrifugation at 17000g for 5 min. The perchloric acid was neutralized with 250 μl of 1 M KOH, and the sample subjected to a freeze/thaw cycle to precipitate the KClO4 salt before again being centrifuged. The supernatant was then analyzed by HPLC as for the Caco-2 permeability studies, and the half-life of the compounds calculated according to the method of Vig et al..

[5] = Oral pharmacokinetics in male Sprague-Dawley rats; settings: for Cmax / Tmax: rat plasma
Procedure: (§2) Animals were given free access to food and water throughout the study and maintained under a 12-h light/dark cycle with temperature and humidity controlled according to Home Office regulations.
(§3) Blood samples (230 μL) were taken from the carotid artery at the following time points and placed in heparinized tubes: predose, 0.25, 0.5, 1, 2, 4, 8 and 24 h post dose. After the final time point the animals were sacrificed by an overdose of anaesthetic.
(§4) Blood samples were centrifuged to obtain the plasma, which was transferred to a separate labelled container. Aliquots from the individual time points for the three animals were analyzed singly. 80 μL of plasma was diluted with 20 μL of 1:1 ACN:water, then 800 μL chilled ACN was added, samples briefly vortex mixed and the centrifuged at 13000 rpm for 5 min at 4 °C. 500 μL of the resultant supernatant was further diluted with 500 μL water.
(§5) 20 μL sample was analyzed by LC-MS/MS using a C18 5 μm Gemini UHPLC column running a gradient of 90% 0.04% acetic acid in water to 90% ACN over 3 min at a flow rate of 0.5 mL min^−1. MS data was acquired under multiple reaction monitoring conditions using a turbo spray ion source. The concentration in the plasma was determined by comparison to standard curves of the administered compound prepared in blank plasma matrices and treated in an identical manner to the samples.

[6] = pH 5.5
[7] = rats; cited from earlier work
[8] = humans; cited from earlier work
rabbit PepT1 [9] = target: T1, rabbit PepT1; design: method as in PMID 19262922; settings: 10 mM prodrug, [3H]-D-Phe-L-Gln efflux; previously reported data ref 16; cited from earlier work
[10] = male, Sprague-Dawley, rat, in vivo, po, 6 mg/kg
Procedure: as §2, §3, §4, §5

in vivo = settings: male, Sprague-Dawley, rat, po, 6 mg/kg
Procedure: as §2, §3, §4, §5

- Ki (rabbit PepT1 [1]): 260 ± 30 µM
- Trans-stimulated efflux? (rabbit PepT1 [2]): Yes
- Papp at 1 h, 2 mM [3]: 3.7 ± 0.2 ×10⁻⁶ cm/s
- half-life at 0.5 mM [4]: > 17 h
- AUC ([5]; male, Sprague-Dawley, rat, plasma, po, 10 mg/kg): 500 ± 100 ng·h/mL
- Cmax ([5]; male, Sprague-Dawley, rat, plasma, po, 10 mg/kg, CMax, 1 at 10 mg kg^−1 oral, assayed compound intact 1): 200 ± 40 ng/mL
- Tmax ([5]; male, Sprague-Dawley, rat, plasma, po, 10 mg/kg, 1 at 10 mg kg^−1 oral, assayed compound intact 1): 1 h
Compound: CC(C)Cc1ccc([C@@H](C)C(=O)OC[C@H](NC(=S)[C@H](C)N)C(=O)O)cc1 [Compound 1]

Compound: (S)-2-((S)-2-Amino-thiopropionylamino)-succinic acid 4-(2-{2-[2-(2-acetoxy-benzoyloxy)-ethoxy]-ethoxy}-ethyl) ester [Compound 4]
- Stability in assay buffer [6]: limited stability

- melting point: 140 to 143 °C
Compound: COc1c(C)c2c(c(O)c1C/C=C(\C)CCC(=O)OC[C@H](NC(=S)[C@H](C)N)C(=O)O)C(=O)OC2 (as salt: salt) (hydrate or solvate) [Compound 11, (S)-2-((S)-2-aminopropanethioamido)-3-((E)-6-(4-hydroxy-6-methoxy-7-methyl-3-oxo-1,3-dihydroisobenzofuran-5-yl)-4-methylhex-4-enoyloxy)propanoic acid]

Compound: C[C@H](N)C(=S)N[C@@H](COC(=O)CC1(CN)CCCCC1)C(=O)O [Compound 2, (S)-3-[2-(1-Aminomethyl-cyclohexyl)-acetoxy]-2-((S)-2-amino-thiopropionylamino)-propionic acid]
- Ki (rabbit PepT1 [1]): 1010 ± 330 µM
- Trans-stimulated efflux? (rabbit PepT1 [2]): Yes
- Papp at 1 h, 2 mM [3]: 0.6 ± 0.1 ×10⁻⁶ cm/s

- Ki (rabbit PepT1 [1]): 210 ± 80 µM
- Trans-stimulated efflux? (rabbit PepT1 [2]): only weakly triggered efflux and Weak
Compound: COc1c(C)c2c(c(O)c1C/C=C(\C)CCC(=O)OC[C@H](NC(=S)[C@H](C)N)C(=O)O)C(=O)OC2 [Compound 11, (S)-2-((S)-2-aminopropanethioamido)-3-((E)-6-(4-hydroxy-6-methoxy-7-methyl-3-oxo-1,3-dihydroisobenzofuran-5-yl)-4-methylhex-4-enoyloxy)propanoic acid]

- half-life at 0.5 mM [4]: 0.15 h
Compound: C[C@H](NC(=O)[C@@H](N)Cc1c[nH]c2ccccc12)C(=O)O [L-Trp-L-Ala, reference compound] (H-Trp-Ala-OH)

- Ki (rabbit PepT1 [1]): 920 ± 190 µM
- Trans-stimulated efflux? (rabbit PepT1 [2]): Yes
- Rat liver homgenate t1/2 ([4]; 0.5 mM compound): 7.3 h
- half-life at 0.5 mM [4]: 7 h
- Cmax ([5]; 3 at 7.6 mg kg^−1 oral, assayed compound intact 3): 16300 ± 1800 ng/mL
- AUC ([5]; male, Sprague-Dawley, rat, plasma, po, 7.6 mg/kg): 3200 ± 1400 ng·h/mL
- Cmax ([5]; male, Sprague-Dawley, rat, plasma, po, 7.6 mg/kg, CMax, 3 at 7.6 mg kg^−1 oral, assayed compound intact 3): 16700 ng/mL
- Tmax ([5]; male, Sprague-Dawley, rat, plasma, po, 7.6 mg/kg, 3 at 7.6 mg kg^−1 oral, assayed compound intact 3): 5.2 ± 0.8 h
Compound: CC(C)c1cccc(C(C)C)c1OC(=O)C[C@H](NC(=S)[C@H](C)N)C(=O)O [Compound 3, (S)-2-((S)-2-Amino-thiopropionylamino)-succinic acid 4-(2,6-diisopropyl-phenyl) ester]

Compound: CC(C)c1cccc(C(C)C)c1O [propofol]
- Oral bioavailability [7]: no oral bioavailability
- Oral bioavailability [8]: no oral bioavailability

Compound: C[C@H](N)C(=S)N[C@@H](COC(=O)C[C@@H](CN)c1ccc(Cl)cc1)C(=O)O [Compound 10, (S)-3-((R)-4-amino-3-(4-chlorophenyl)butanoyloxy)-2-((S)-2-aminopropanethioamido)propanoic acid]
- Ki (rabbit PepT1 [1]): 1870 ± 260 µM
- Trans-stimulated efflux? (rabbit PepT1 [2]): No

- Ki (rabbit PepT1 [1]): 130 ± 20 µM
- Trans-stimulated efflux? (rabbit PepT1 [2]): No
Compound: CC(=O)N[C@H]1[C@H]([C@H](O)[C@H](O)COC(=O)C[C@H](NC(=S)[C@H](C)N)C(=O)O)OC(C(=O)O)=C[C@@H]1NC(=N)N [Compound 9, (4S,5R,6R)-5-acetamido-6-((1R,2R)-3-((S)-3-((S)-2-aminopropanethioamido)-3-carboxypropanoyloxy)-1,2-dihydroxypropyl)-4-guanidino-5,6-dihydro-4H-pyran-2-carboxylic acid]

Compound: C[C@H](N)C(=S)N[C@@H](COC(=O)C[C@@H](CN)c1ccc(Cl)cc1)C(=O)O (as salt: salt) (hydrate or solvate) [Compound 10, (S)-3-((R)-4-amino-3-(4-chlorophenyl)butanoyloxy)-2-((S)-2-aminopropanethioamido)propanoic acid]
- melting point: 112 to 115 °C

- melting point: 118 to 121 °C
Compound: CC(C)NC[C@@H](COc1ccc(CC(N)=O)cc1)OC(=O)C[C@H](NC(=S)[C@H](C)N)C(=O)O (as salt: salt) [Compound 8, (S)-4-((S)-3-(4-(2-amino-2-oxoethyl)phenoxy)-1-(isopropylamino)propan-2-yloxy)-2-((S)-2-aminopropanethioamido)-4-oxobutanoic acid]

- Stability in assay buffer [6]: limited stability
Compound: (S)-2-((S)-2-Amino-thiopropionylamino)-succinic acid 4-[2-(2-amino-6-oxo-1,6-dihydro-purin-9-ylmethoxy)-ethyl] ester [Compound 5]

Compound: COc1ccc2cc(CC/C(C)=N/OCCOC(=O)C[C@H](NC(=S)[C@H](C)N)C(=O)O)ccc2c1 [Compound 6]
- Trans-stimulated efflux? (rabbit PepT1 [9]): Yes

- Ki (rabbit PepT1 [1]): 320 ± 80 µM
- Trans-stimulated efflux? (rabbit PepT1 [2]): No
- Papp at 1 h, 2 mM [3]: 3 ± 0.5 ×10⁻⁶ cm/s
Compound: C[C@H](NC(=O)[C@@H](N)Cc1ccccc1)C(N)=S [FSA, PheΨ[CS-NH]-Ala, reference compound]

- Ki (rabbit PepT1 [1]): 440 ± 150 µM
- Trans-stimulated efflux? (rabbit PepT1 [2]): No
Compound: CC(C)NC[C@@H](COc1ccc(CC(N)=O)cc1)OC(=O)C[C@H](NC(=S)[C@H](C)N)C(=O)O [Compound 8, (S)-4-((S)-3-(4-(2-amino-2-oxoethyl)phenoxy)-1-(isopropylamino)propan-2-yloxy)-2-((S)-2-aminopropanethioamido)-4-oxobutanoic acid]

- melting point: 210 to 212 °C
Compound: CC(=O)N[C@H]1[C@H]([C@H](O)[C@H](O)COC(=O)C[C@H](NC(=S)[C@H](C)N)C(=O)O)OC(C(=O)O)=C[C@@H]1NC(=N)N (as salt: salt) (hydrate or solvate) [Compound 9, (4S,5R,6R)-5-acetamido-6-((1R,2R)-3-((S)-3-((S)-2-aminopropanethioamido)-3-carboxypropanoyloxy)-1,2-dihydroxypropyl)-4-guanidino-5,6-dihydro-4H-pyran-2-carboxylic acid]

- Tmax [10]: 0.7 ± 0.3 h
- AUC (in vivo): 14000 ± 1800 ng·h/mL
- Cmax (in vivo; CMax): 5700 ± 600 ng/mL
- Tmax (in vivo; tmax): 1 h
Compound: CC(C)Cc1ccc(C(C)C(=O)O)cc1 (stereo not shown) [Ibuprofen]

— article PMC6107785, “Thiodipeptides targeting the intestinal oligopeptide transporter as a general approach to improving oral drug delivery” (European Journal of Medicinal Chemistry, 2018)
